Columns and labels:
TNF-R1 [1] = test: Immunofluorescence / flow cytometry of TNF-R1 presence in human SK-N-SH cells supplied with peptide; format: cell-based; details: human cell line SK-N-SH, retinoic acid induction, peptide 5 μM, two days; fluorescence intensity relative to control group = 1 (FIG. 2)
Protocol: The activities of the respective peptides synthesized in Example 1 above were tested with cultured cells of a human neuroblastoma cell line (SK-N-SH). The control group was supplied with no peptides. The test details are described below.
Firstly, each peptide synthesized in Example 1 above was dissolved in DMSO to prepare a stock solution having a peptide concentration of 4 mM.
The SK-N-SH cell line was then seeded in a 4 mL fraction in a culture dish of 6 cm diameter at a density of 1.5×10^5 cells/mL and incubated overnight in a general DMEM culture medium (with 10% FBS (a Hyclone product, KSD), 2 mM L-glutamine, 50 unit/mL penicillin, and 50 μg/mL streptomycin) at 37° C. in a CO2 incubator at 5% CO2. Due to a low cell density, incubation was carried on for one more days.
After incubated over two nights, the culture medium was replaced with a fresh DMEM culture medium (with 2% FBS, 20 μM retinoic acid, 2 mM L-glutamine, 50 unit/mL penicillin, and 50 μg/mL streptomycin). Incubation was carried on for five days under the same conditions to effect retinoic acid induction.
Subsequently, the culture medium was replaced with a DMEM culture medium containing a peptide (TNF-R2 upregulating peptide or TNF-R2 downregulating peptide) in an amount equivalent to 5 μM, in addition to 2% FBS, 20 μM retinoic acid, 2 mM L-glutamine, 50 unit/mL penicillin and 50 μg/mL streptomycin (also containing 5 μL of DMSO at this point). Incubation was carried on under the same conditions for two days.
The control group (group supplied with no peptide) was incubated for two days in a DMEM culture medium (with 2% FBS, 20 μM retinoic acid, 20 μM retinoic acid, 2 mM L-glutamine, 50 unit/mL penicillin, and 50 μg/mL streptomycin) supplied only with the aforementioned amount of DMSO, without any added peptide.
After completion of the incubation, cultured cells in each test group were collected and divided into certain test tubes in fractions having the same number of cells. By the immunofluorescence technique described below, the change in the balance between the presence of TNF-R1 and TNF-R2 was then assessed in each test group (group supplied with TNF-R2 upregulating peptide, group supplied with TNF-R2 downregulating peptide).
More specifically, in each test group, for the TNF-R1 measurement, an anti-TNF-R1 mouse polyclonal antibody (a Santa Cruz Biotechnology Inc. product, SC-52739) was added to the respective test tubes to a final concentration of 2×10^−3 mg/mL and incubation was carried out under ice-cold conditions for a prescribed time period. As a secondary antibody, a goat anti-mouse IgG antibody (an Invitrogen product, A10029) labeled with a fluorescent dye (Alexa® 488) was added to the test tubes to a final concentration of 4×10^−3 mg/mL and incubation was carried out under ice-cold conditions for a prescribed time period.
In the same manner as Example 2 above, the fluorescence intensities of cells were measured with a flow cytometer. For both TNF-R1 and TNF-R2, the fluorescence intensities are shown as relative values with the fluorescence intensities of TNF-R1 and TNF-R2 in the control group (group supplied with no peptide) being 1, respectively.

TNF-R1 [2] = test: Immunofluorescence / flow cytometry of TNF-R1 presence in mouse Neuro 2a cells supplied with peptide; format: cell-based; details: mouse cell line Neuro 2a, retinoic acid induction, peptide 5 μM, two days; fluorescence intensity relative to control group = 1 (FIG. 1)
Protocol: The activities of the peptides of Sample 1 and Sample 6 synthesized in Example 1 above were tested with cultured cells of a mouse […], neuroblastoma cell line (Neuro 2a). The control group was supplied with no peptides. The test details are described below.
Firstly, each peptide synthesized in Example 1 above was dissolved in PBS (phosphate buffered saline) to prepare a stock solution having a peptide concentration of 1 mM (with a small amount of dimethyl sulfoxide (DMSO)). […]
After completion of the incubation, cultured cells in each test group were collected and divided into certain test tubes in fractions having the same number of cells. By the immunofluorescence technique described below, the change in the balance between the presence of TNF-R1 and TNF-R2 was then assessed in each test group (group supplied with TNF-R2 upregulating peptide, group supplied with TNF-R2 downregulating peptide). […]
The fluorescence intensities of cells were measured with a flow cytometer (a Millipore system product, Guava® easyCyte 8HT). For both TNF-R1 and TNF-R2, the fluorescence intensities are shown as relative values with the fluorescence intensities of TNF-R1 and TNF-R2 in the control group (group supplied with no peptide) being 1, respectively.

Sequence | presence of TNF-R1 (TNF-R1 [1]) | presence of TNF-R1 (TNF-R1 [2])
MAPAALWVALVFELQLWATGHT (listed as Mus musculus) [Sample 7, TNF-R2 downregulating peptide; mouse TNF-R2 signal peptide motif, linear, 22 amino acid residues] | no significant change | 
MAPVAVWAALAVGLELWAAAHA (listed as Homo sapiens) [Sample 6, TNF-R2 downregulating peptide; human TNF-R2 signal peptide motif, linear, 22 amino acid residues] | no significant change | no significant change
MGLPTVPGLLLSLVLLALLMG (listed as Mus musculus) [Sample 2, TNF-R2 upregulating peptide; mouse TNF-R1 signal peptide motif, linear, 21 amino acid residues] | no significant change | 
MGLSTVPDLLLPLVLLELLVG (listed as Homo sapiens) [Sample 1, TNF-R2 upregulating peptide; human TNF-R1 signal peptide motif, linear, 21 amino acid residues] | no significant change | no significant change
MGLSTVPGLLLPLVLRALLVD (listed as Sus scrofa) [Sample 5, TNF-R2 upregulating peptide; pig TNF-R1 signal peptide motif, linear, 21 amino acid residues] | no significant change | 

From patent publication US10125168B2, “Synthetic peptide for adjusting balance between presence of type 1 TNF receptor and type 2 TNF receptor and use thereof” (TOAGOSEI CO., LTD., priority 2012, dated 2018)
